# From patent US12157730B2, “Heteroaryl derivative, method for producing same, and pharmaceutical composition comprising same as effective component” (VORONOI INC., priority 2019, dated 2024)
# Target: T1, Ba/F3 cell EGFR Exon20 ins NPH (Homo sapiens, UniProt P00533, INS773NPH)
# T1 construct: expressed in transfected cells; host or cells: Ba/F3
# Experiment: Ba/F3 cell proliferation suppression, EGFR Exon20 ins NPH
# Assay type: cell-based
# Conditions: GI50 class; Ba/F3 cell line with NPH inserted at Exon20 of EGFR; 72 hours
# Procedure, shortened: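 Cells (3000–5000/well) plated 24 h before compound, 12-point 3-fold dilutions at 0.3 nM to 50 um final; Ba/F3 lines grown with 5 ng/ml IL-3. Viability by CellTiter-Glo luminescence after 72 h, growth ratio vs control, GI50 from curves; triplicate.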
row,Structure (SMILES),Ba/F3 (NPH) Activity
1,"COc1cc(OCCC(C)(C)OC)c(NC(=O)/C=C/CN(C)C)cc1Nc1cc(N2OCC[C@@H]2c2cc(F)cc(F)c2)ncn1 [compound 496, N-(5-((6-((R)-3-(3,5-difluorophenyl)isoxazolidine-2-yl)pyrimidine-4-yl)amino)-4-methoxy-2-(3-methoxy-3-methylbutoxy)phenyl)-(E)-4-(dimethylamino) but-2-enamide]",C (500 nM ≤ GI50 < 5000 nM)
2,"C=CC(=O)Nc1cc(Nc2cc(N3OCC[C@@H]3c3cccc4ccccc34)ncn2)c(OC)cc1N1CCC(N2CCN(C3CCC3)CC2)CC1 [Example 184, N-(2-(4-(4-cyclobutylpiperazine-1-yl)piperidine-1-yl)-4-methoxy-5-((6-((R)-3-(naphthalene-1-yl)isoxazolidine-2-yl)pyrimidine-4-yl)amino)phenyl)acrylamide]",B (50 nM ≤ GI50 < 500 nM)
3,"C=CC(=O)Nc1cc(Nc2cc(N3OCC[C@@H]3c3cccc(C#N)c3)ncn2)c(OC)cc1N1CCC(N2CCN(C)CC2)CC1 [compound 398, N-(5-((6-((R)-3-(3-cyanophenyl)isoxazolidine-2-yl)pyrimidine-4-yl)amino)-4-methoxy-2-(4-(4-methylpiperazine-1-yl)piperidine-1-yl)phenyl) acrylamide]",A (GI50 < 50 nM)
4,"C=CC(=O)Nc1cc(Nc2cc(N3OCC[C@@H]3c3cc(F)cc(Cl)c3)ncn2)c(OC)cc1N1CCC(N2CCOCC2)CC1 [compound 589, N-(5-((6-((R)-3-(3-chloro-5-fluorophenyl)isoxazolidine-2-yl)pyrimidine-4-yl)amino)-4-methoxy-2-(4-morpholinopiperidine-1-yl)phenyl)acrylamide]",A (GI50 < 50 nM)
5,"C#Cc1cccc([C@H]2CCON2c2cc(Nc3cc(NC(=O)C=C)c(N4CCN(CC)CC4)cc3OC)ncn2)c1 [compound 648, N-(2-(4-ethylpiperazine-1-yl)-5-((6-((R)-3-(3-ethynylphenyl)isoxazolidine-2-yl)pyrimidine-4-yl)amino)-4-methoxyphenyl) acrylamide]",A (GI50 < 50 nM)
6,"C=CC(=O)Nc1cc(Nc2cc(N3OCC[C@@H]3c3cccc(Cl)c3Cl)ncn2)c(OC)cc1N1CCN(C(C)=O)CC1 [compound 519, N-(2-(4-acetylpiperazine-1-yl)-5-((6-((R)-3-(2,3-dichlorophenyl)isoxazolidine-2-yl)pyrimidine-4-yl)amino)-4-methoxyphenyl) acrylamide]",A (GI50 < 50 nM)
7,"C=CC(=O)Nc1cc(Nc2cc(N3OCC[C@@H]3c3ccc(F)c(Cl)c3F)ncn2)c(OC)cc1N1CCO[C@H](C)C1 [compound 666, N-(5-((6-((R)-3-(3-chloro-2,4-difluorophenyl)isoxazolidine-2-yl)pyrimidine-4-yl)amino)-4-methoxy-2-((R)-2-methylmorpholino)phenyl)acrylamide]",B (50 nM ≤ GI50 < 500 nM)
8,"C=CC(=O)Nc1cc(Nc2cc(N3OCC[C@@H]3c3ccc(Cl)c(Cl)c3)ncn2)c(OC)cc1N1C[C@H]2C[C@@H]1CO2 [compound 671, N-(2-((1R,4R)-2-oxa-5-azabicyclo[2.2.1]heptane-5-yl)-5-((6-((R)-3-(3,4-dichlorophenyl)isoxazolidine-2-yl)pyrimidine-4-yl)amino)-4-methoxyphenyl) acrylamide]",A (GI50 < 50 nM)
9,"C=CC(=O)Nc1cc(Nc2cc(N3OCC[C@@H]3c3cc(F)cc(F)c3)ncn2)c(OC)cc1N1CCC(N2CCN(C3CCCC3)CC2)CC1 [Example 98, N-(2-(4-(4-cyclopentylpiperazine-1-yl)piperidine-1-yl)-5-((6-((R)-3-(3,5-difluorophenyl)isoxazolidine-2-yl)pyrimidine-4-yl)amino)-4-methoxyphenyl) acrylamide]",A (GI50 < 50 nM)
10,"C=CC(=O)Nc1cc(Nc2cc(N3OCC[C@@H]3c3cccc(C)c3F)ncn2)c(OC)cc1N1CCC(N2CCN(C3CC3)CC2)CC1 [Example 140, N-(2-(4-(4-cyclopropylpiperazine-1-yl)piperidine-1-yl)-5-((6-((R)-3-(2-fluoro-3-methylphenyl)isoxazolidine-2-yl)pyrimidine-4-yl)amino)-4-methoxyphenyl) acrylamide]",A (GI50 < 50 nM)
11,"C=CC(=O)Nc1cc(Nc2cc(N3OCC[C@@H]3c3cccc(C(F)(F)F)c3)ncn2)c(OC)cc1N1CC[C@H](N2CCOCC2)C1 [compound 507, N-(4-methoxy-2-((S)-3-morpholinopyrolidine-1-yl)-5-((6-((R)-3-(3-(trifluoromethyl)phenyl)isoxazolidine-2-yl)pyrimidine-4-yl)amino)phenyl)acrylamide]",B (50 nM ≤ GI50 < 500 nM)
12,"C=CC(=O)Nc1cc(Nc2cc(N3OCC[C@@H]3c3ccc(C)nc3)ncn2)c(OC)cc1N1CCC(N2CCN(C(C)=O)CC2)CC1 [Example 232, N-(2-(4-(4-acetylpiperazine-1-yl)piperidine-1-yl)-4-methoxy-5-((6-((R)-3-(6-methylpyridine-3-yl)isoxazolidine-2-yl)pyrimidine-4-yl)amino)phenyl) acrylamide]",B (50 nM ≤ GI50 < 500 nM)
13,"C=CC(=O)Nc1cc(Nc2cc(N3OCC[C@@H]3c3cc(F)cc(Cl)c3)ncn2)c(OC)cc1N1CCC(N2CCN(C(C)C)CC2)CC1 [compound 593, N-(5-((6-((R)-3-(3-chloro-5-fluorophenyl)isoxazolidine-2-yl)pyrimidine-4-yl)amino)-2-(4-(4-isopropylpiperazine-1-yl)piperidine-1-yl)-4-methoxyphenyl) acrylamide]",A (GI50 < 50 nM)
14,"C=CC(=O)Nc1cc(Nc2cc(N3OCC[C@@H]3c3ccc(C)nc3)ncn2)c(OC)cc1N1CCC(N(C)CCOC)CC1 [Example 229, N-(4-methoxy-2-(4-((2-methoxyethyl)(methyl)amino)piperidine-1-yl)-5-((6-((R)-3-(6-methylpyridine-3-yl)isoxazolidine-2-yl)pyrimidine-4-yl)amino)phenyl)acrylamide]",B (50 nM ≤ GI50 < 500 nM)
15,"C=CC(=O)Nc1cc(Nc2cc(N3OCC[C@@H]3c3cccc(OC)c3)ncn2)c(OC)cc1N1CCN(C)CC1 [Example 25, N-(4-methoxy-5-((6-((R)-3-(3-methoxyphenyl)isoxazolidine-2-yl)pyrimidine-4-yl)amino)-2-(4-methylpiperazine-1-yl)phenyl) acrylamide]",B (50 nM ≤ GI50 < 500 nM)
16,"C=CC(=O)Nc1cc(Nc2cc(N3OCC[C@H]3c3c(F)cccc3F)ncn2)c(OC)cc1N1CCC(N2CCN(C)[C@@H](C)C2)CC1 [compound 313, N-(5-((6-((S)-3-(2,6-difluorophenyl)isoxazolidine-2-yl)pyrimidine-4-yl)amino)-2-(4-((S)-3,4-dimethylpiperazine-1-yl)piperidine-1-yl)-4-methoxyphenyl) acrylamide]",C (500 nM ≤ GI50 < 5000 nM)

# Other lines, results leading:
row,Ba/F3 (NPH) Activity,Structure (SMILES)
1,A (GI50 < 50 nM),"C=CC(=O)Nc1cc(Nc2cc(N3OCC[C@@H]3c3ccc(Cl)c(Cl)c3)ncn2)c(OC)cc1N1CCC(N(C)C)CC1 [compound 677, N-(5-((6-((R)-3-(3,4-dichlorophenyl)isoxazolidine-2-yl)pyrimidine-4-yl)amino)-2-(4-(dimethylamino)piperidine-1-yl)-4-methoxyphenyl) acrylamide]"
2,B (50 nM ≤ GI50 < 500 nM),"C=CC(=O)Nc1cc(Nc2cc(N3OCC[C@@H]3c3ccc(Cl)cc3)ncn2)c(OC)cc1N1CC[C@@H](N(C)C)C1 [compound 695, N-(5-((6-((R)-3-(4-chlorophenyl)isoxazolidine-2-yl)pyrimidine-4-yl)amino)-2-((R)-3-(dimethylamino)pyrolidine-1-yl)-4-methoxyphenyl) acrylamide]"
3,A (GI50 < 50 nM),"C=CC(=O)Nc1cc(Nc2cc(N3OCC[C@@H]3c3cc(F)ccc3F)ncn2)c(OC)cc1N1CCC(N2CC3CCC(C2)O3)CC1 [compound 820, N-(2-(4-(8-oxa-3-azabicyclo[3.2.1]octan-3-yl)piperidine-1-yl)-5-((6-((R)-3-(2,5-difluorophenyl)isoxazolidine-2-yl)pyrimidine-4-yl)amino)-4-methoxyphenyl) acrylamide]"
4,A (GI50 < 50 nM),"C=CC(=O)Nc1cc(Nc2cc(N3OCC[C@@H]3c3cccc(F)c3F)ncn2)c(OC)cc1N1CCN(C)C[C@H]1C [compound 885, N-(5-((6-((R)-3-(2,3-difluorophenyl)isoxazolidine-2-yl)pyrimidine-4-yl)amino)-2-((R)-2,4-dimethylpiperazine-1-yl)-4-methoxyphenyl) acrylamide]"
5,A (GI50 < 50 nM),"C=CC(=O)Nc1cc(Nc2cc(N3OCC[C@@H]3c3ccc(F)cc3)ncn2)c(OC)cc1N1CCC(N2CC[C@H](N(C)C)C2)CC1 [compound 811, N-(2-(4-((S)-3-(dimethylamino)pyrolidine-1-yl)piperidine-1-yl)-5-((6-((R)-3-(4-fluorophenyl)isoxazolidine-2-yl)pyrimidine-4-yl)amino)-4-methoxyphenyl) acrylamide]"
6,A (GI50 < 50 nM),"C=CC(=O)Nc1cc(Nc2cc(N3OCC[C@@H]3c3ccc(Cl)c(F)c3)ncn2)c(OC)cc1N1CCN(C2COC2)CC1 [compound 801, N-(5-((6-((R)-3-(4-chloro-3-fluorophenyl)isoxazolidine-2-yl)pyrimidine-4-yl)amino)-4-methoxy-2-(4-(oxetane-3-yl)piperazine-1-yl)phenyl)acrylamide]"
7,A (GI50 < 50 nM),"C=CC(=O)Nc1cc(Nc2cc(N3OCC[C@@H]3c3cccc(C)c3F)ncn2)c(OC)cc1N1CCC(N2CCN(C(C)C)CC2)CC1 [compound 911, N-(5-((6-((R)-3-(2-fluoro-3-methylphenyl)isoxazolidine-2-yl)pyrimidine-4-yl)amino)-2-(4-(4-isopropylpiperazine-1-yl)piperidine-1-yl)-4-methoxyphenyl) acrylamide]"
